The source made the active and inactive calls. No stated cut-off is given here; in the data, actives have a measured IC50 and inactives only a lower limit.
target: Envelope glycoprotein gp160 (Human immunodeficiency virus 1, UniProt Q6QLK5); assay: cell-free HIV fusion peptide-binding blockers – biochemical, uHTS, fluorescence dequenching, […] (AID 1986)
Sequence (Q6QLK5 whole entry, the tested form may be a part): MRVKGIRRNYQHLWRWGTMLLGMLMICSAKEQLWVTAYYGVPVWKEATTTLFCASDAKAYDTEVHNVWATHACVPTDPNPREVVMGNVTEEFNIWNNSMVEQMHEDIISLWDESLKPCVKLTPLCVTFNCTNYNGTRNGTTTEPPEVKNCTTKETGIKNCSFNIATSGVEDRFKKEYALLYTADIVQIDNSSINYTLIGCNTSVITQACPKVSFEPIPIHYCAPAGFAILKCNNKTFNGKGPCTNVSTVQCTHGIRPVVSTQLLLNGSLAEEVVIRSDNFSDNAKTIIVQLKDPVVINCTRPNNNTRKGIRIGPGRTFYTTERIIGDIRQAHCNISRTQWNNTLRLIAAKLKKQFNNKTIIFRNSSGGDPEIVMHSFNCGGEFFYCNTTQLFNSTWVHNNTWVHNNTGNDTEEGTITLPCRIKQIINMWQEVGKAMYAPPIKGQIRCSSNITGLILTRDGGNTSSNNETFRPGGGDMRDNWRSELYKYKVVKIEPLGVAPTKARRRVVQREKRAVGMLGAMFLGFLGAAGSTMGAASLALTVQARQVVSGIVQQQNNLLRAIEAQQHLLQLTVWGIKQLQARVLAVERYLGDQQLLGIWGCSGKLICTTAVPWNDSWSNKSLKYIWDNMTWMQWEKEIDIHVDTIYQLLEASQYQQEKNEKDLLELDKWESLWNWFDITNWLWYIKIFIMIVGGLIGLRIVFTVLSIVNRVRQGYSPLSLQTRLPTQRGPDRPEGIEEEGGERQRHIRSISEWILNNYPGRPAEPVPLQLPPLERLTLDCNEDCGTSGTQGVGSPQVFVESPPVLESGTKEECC

SMILES	IC50
CCCOc1cccc(C2C(C(=O)c3cc4ccccc4o3)=C(O)C(=O)N2c2cc(C)on2)c1 (centres undefined)	16.9 µM (active)
O=C(CCN1C(=O)/C(=C/c2ccco2)SC1=S)Nc1ccc(C(=O)O)c(O)c1	14.7 µM (active)
O=C(O)CN1C(=O)/C(=C\c2cc(Br)ccc2OCc2ccccc2Cl)SC1=S	14.3 µM (active)
O=C(O)CN1C(=O)/C(=C\c2cc(Br)ccc2OCc2ccc(F)cc2)SC1=S	10.7 µM (active)
